Results from ChEMBL document CHEMBL5584238, “Psammaplin A analogues with modified disulfide bond targeting histone deacetylases: Synthesis and biological evaluation” (Eur J Med Chem, 2024).
Calls of active or inactive are those of the source. The rule behind the calls is not given here.

How the values were obtained:
[1] = system: HCT-116; test: Induction of cell cycle arrest in human HCT-116 cells assessed as accumulation of cells at G1 phase at 2 uM after 24 hrs by PI staining based flow cytometry analysis (reference value: 37.9%); type: functional
[2] = biological target: T1, Class 1 histone deacetylase (Homo sapiens) (UniProt Q13547+O15379+Q92769+Q9BY41); test: Inhibition of class 1 HDACs in human HCT-116 cells assessed as upregulation of acetylated alpha-H3 level at 1 uM incubated for 24 hrs by Western blotting analysis; type: cell-based
[3] = system: HCT-116; test: Induction of cell cycle arrest in human HCT-116 cells assessed as accumulation of cells at G2/M phase at 2 uM after 24 hrs by PI staining based flow cytometry analysis (reference value: 9.3%); type: functional
[4] = biological target: Histone deacetylase 1 (Homo sapiens, UniProt Q13547); test: Inhibition of recombinant human HDAC1 using Boc-Lys(Ac)-AMC as substrate preincubated for 1 hr followed by substrate addition and measured after 2 hrs by microplate reader assay
[5] = system: HCT-116; test: Induction of apoptosis in human HCT-116 cells assessed as early apoptotic cells at 4 uM incubated for 24 hrs by Annexin V-FITC/PI staining based flow cytometry analysis ( Rvb = 2.36%); type: functional
[6] = system: HCT-116; test: Induction of apoptosis in human HCT-116 cells assessed as viable cells at 2 uM incubated for 24 hrs by Annexin V-FITC/PI staining based flow cytometry analysis ( Rvb = 92.2%); type: functional; details: read-out: Activity
[7] = system: HCT-116; test: Antiproliferative activity against human HCT-116 cells incubated for 48 hrs by MTT assay; type: functional, cell-based; details: HCT-116, 48 h
[8] = system: HCT-116; test: Induction of cell cycle arrest in human HCT-116 cells assessed as accumulation of cells at G1 phase at 1 uM after 24 hrs by PI staining based flow cytometry analysis (reference value: 37.9%); type: functional
[9] = system: HCT-116; test: Induction of cell cycle arrest in human HCT-116 cells assessed as accumulation of cells at S phase at 2 uM after 24 hrs by PI staining based flow cytometry analysis (reference value: 52.8%); type: functional
[10] = system: HCT-116; test: Induction of apoptosis in human HCT-116 cells assessed as necrotic cells at 2 uM incubated for 24 hrs by Annexin V-FITC/PI staining based flow cytometry analysis ( Rvb = 0.24%); type: functional
[11] = system: HCT-116; test: Induction of apoptosis in human HCT-116 cells assessed as necrotic cells at 4 uM incubated for 24 hrs by Annexin V-FITC/PI staining based flow cytometry analysis ( Rvb = 0.24%); type: functional
[12] = system: HCT-116; test: Induction of cell cycle arrest in human HCT-116 cells assessed as accumulation of cells at G2/M phase at 1 uM after 24 hrs by PI staining based flow cytometry analysis (reference value: 9.3%); type: functional
[13] = system: HCT-116; test: Induction of apoptosis in human HCT-116 cells assessed as viable cells at 4 uM incubated for 24 hrs by Annexin V-FITC/PI staining based flow cytometry analysis ( Rvb = 92.2%); type: functional; details: read-out: Activity
[14] = system: HCT-116; test: Induction of apoptosis in human HCT-116 cells assessed as late apoptotic cells at 2 uM incubated for 24 hrs by Annexin V-FITC/PI staining based flow cytometry analysis ( Rvb = 5.32%); type: functional
[15] = system: HCT-116; test: Induction of cell cycle arrest in human HCT-116 cells assessed as accumulation of cells at S phase at 1 uM after 24 hrs by PI staining based flow cytometry analysis (reference value: 52.8%); type: functional
[16] = system: HCT-116; test: Antitumor activity against human HCT-116 cells xenografted with BALB/c nude mouse assessed as tumor growth inhibition at 10 mg/kg, ip administered every 2 days for 26 days; type: functional; details: HCT-116, 624 h, time 26 day, read-out: TGI
[17] = system: HCT-116; test: Induction of apoptosis in human HCT-116 cells assessed as late apoptotic cells at 4 uM incubated for 24 hrs by Annexin V-FITC/PI staining based flow cytometry analysis ( Rvb = 5.32%); type: functional
[18] = system: HCT-116; test: Induction of apoptosis in human HCT-116 cells assessed as early apoptotic cells at 2 uM incubated for 24 hrs by Annexin V-FITC/PI staining based flow cytometry analysis ( Rvb = 2.36%); type: functional
[19] = biological target: T2, Protein deacetylase HDAC6 (Homo sapiens) (UniProt Q9UBN7); test: Inhibition of HDAC6 in human HCT-116 cells assessed as upregulation of acetylated alpha-tubulin level at 1 uM incubated for 24 hrs by Western blotting analysis; type: cell-based
T2 sequence (whole entry): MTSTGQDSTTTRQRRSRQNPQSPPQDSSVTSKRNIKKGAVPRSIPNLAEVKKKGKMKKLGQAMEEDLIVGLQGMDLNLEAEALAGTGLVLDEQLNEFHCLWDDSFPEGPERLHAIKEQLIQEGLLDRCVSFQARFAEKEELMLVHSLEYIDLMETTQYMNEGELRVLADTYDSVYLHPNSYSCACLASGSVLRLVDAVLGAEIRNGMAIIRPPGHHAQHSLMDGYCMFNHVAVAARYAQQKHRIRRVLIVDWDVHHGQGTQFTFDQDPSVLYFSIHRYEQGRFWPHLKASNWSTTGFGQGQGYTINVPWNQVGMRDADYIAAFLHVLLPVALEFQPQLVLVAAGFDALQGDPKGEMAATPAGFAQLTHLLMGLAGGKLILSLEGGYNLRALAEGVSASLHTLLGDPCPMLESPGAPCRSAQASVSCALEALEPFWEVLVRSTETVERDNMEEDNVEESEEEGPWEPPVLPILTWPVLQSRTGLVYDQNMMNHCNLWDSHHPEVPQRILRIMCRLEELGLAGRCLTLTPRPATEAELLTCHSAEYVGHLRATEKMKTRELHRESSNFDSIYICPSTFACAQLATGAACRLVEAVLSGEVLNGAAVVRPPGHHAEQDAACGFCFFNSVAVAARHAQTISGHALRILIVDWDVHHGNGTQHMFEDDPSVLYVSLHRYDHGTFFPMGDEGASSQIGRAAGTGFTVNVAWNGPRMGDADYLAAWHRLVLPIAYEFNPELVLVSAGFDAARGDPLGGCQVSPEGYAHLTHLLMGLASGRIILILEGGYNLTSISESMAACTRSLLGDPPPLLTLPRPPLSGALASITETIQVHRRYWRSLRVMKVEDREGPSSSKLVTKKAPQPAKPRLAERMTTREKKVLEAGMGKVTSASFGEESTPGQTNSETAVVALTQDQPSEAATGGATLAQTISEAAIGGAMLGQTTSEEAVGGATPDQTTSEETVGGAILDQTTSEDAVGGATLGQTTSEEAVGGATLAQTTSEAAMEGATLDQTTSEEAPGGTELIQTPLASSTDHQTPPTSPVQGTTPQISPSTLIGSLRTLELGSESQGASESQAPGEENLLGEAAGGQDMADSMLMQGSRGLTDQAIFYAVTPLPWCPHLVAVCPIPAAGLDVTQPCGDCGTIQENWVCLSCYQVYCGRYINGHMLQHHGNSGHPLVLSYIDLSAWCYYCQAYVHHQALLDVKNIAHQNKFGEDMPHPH

[20] = system: NCI-H1581; test: Antiproliferative activity against human NCI-H1581 cells incubated for 48 hrs by MTT assay; type: functional, cell-based; details: NCI-H1581, 48 h
[21] = system: HCT-116; test: Induction of cell cycle arrest in human HCT-116 cells assessed as accumulation of cells at G1 phase at 0.1 uM after 24 hrs by PI staining based flow cytometry analysis (reference value: 37.9%); type: functional
[22] = system: HCT-116; test: Induction of cell cycle arrest in human HCT-116 cells assessed as accumulation of cells at S phase at 0.1 uM after 24 hrs by PI staining based flow cytometry analysis (reference value: 52.8%); type: functional
[23] = system: HCT-116; test: Induction of cell cycle arrest in human HCT-116 cells assessed as accumulation of cells at G2/M phase at 0.1 uM after 24 hrs by PI staining based flow cytometry analysis (reference value: 9.3%); type: functional
[24] = system: HCT-116; test: Induction of cell cycle arrest in human HCT-116 cells assessed as accumulation of cells at S phase at 0.2 uM after 24 hrs by PI staining based flow cytometry analysis (reference value: 52.8%); type: functional
[25] = biological target: T1, Class 1 histone deacetylase (Homo sapiens); test: Inhibition of class 1 HDACs in human HCT-116 cells assessed as upregulation of acetylated alpha-H3 level incubated for 24 hrs by Western blotting analysis; type: cell-based; details: dose 0.5-4 µM
[26] = system: HCT-116; test: Induction of apoptosis in human HCT-116 cells assessed as late apoptotic cells at 0.2 uM incubated for 24 hrs by Annexin V-FITC/PI staining based flow cytometry analysis ( Rvb = 5.32%); type: functional
[27] = system: HCT-116; test: Induction of cell cycle arrest in human HCT-116 cells assessed as accumulation of cells at G1 phase at 0.4 uM after 24 hrs by PI staining based flow cytometry analysis (reference value: 37.9%); type: functional
[28] = system: HCT-116; test: Induction of cell cycle arrest in human HCT-116 cells assessed as accumulation of cells at S phase at 0.4 uM after 24 hrs by PI staining based flow cytometry analysis (reference value: 52.8%); type: functional
[29] = system: HCT-116; test: Induction of apoptosis in human HCT-116 cells assessed as necrotic cells at 0.4 uM incubated for 24 hrs by Annexin V-FITC/PI staining based flow cytometry analysis ( Rvb = 0.24%); type: functional
[30] = system: HCT-116; test: Induction of apoptosis in human HCT-116 cells assessed as viable cells at 0.4 uM incubated for 24 hrs by Annexin V-FITC/PI staining based flow cytometry analysis ( Rvb = 92.2%); type: functional; details: read-out: Activity
[31] = system: EBC-1; test: Antiproliferative activity against human EBC-1 cells incubated for 48 hrs by MTT assay; type: functional, cell-based; details: EBC-1, 48 h
[32] = system: HCT-116; test: Induction of apoptosis in human HCT-116 cells assessed as late apoptotic cells at 0.4 uM incubated for 24 hrs by Annexin V-FITC/PI staining based flow cytometry analysis ( Rvb = 5.32%); type: functional
[33] = biological target: T2, Protein deacetylase HDAC6 (Homo sapiens); test: Inhibition of HDAC6 in human HCT-116 cells assessed as upregulation of acetylated alpha-tubulin level incubated for 24 hrs by Western blotting analysis; type: cell-based; details: dose 0.5-4 µM
[34] = system: HCT-116; test: Induction of cell cycle arrest in human HCT-116 cells assessed as accumulation of cells at G2/M phase at 0.4 uM after 24 hrs by PI staining based flow cytometry analysis (reference value: 9.3%); type: functional
[35] = system: HCT-116; test: Induction of cell cycle arrest in human HCT-116 cells assessed as accumulation of cells at G2/M phase at 0.2 uM after 24 hrs by PI staining based flow cytometry analysis (reference value: 9.3%); type: functional
[36] = system: HCT-116; test: Induction of apoptosis in human HCT-116 cells assessed as early apoptotic cells at 0.2 uM incubated for 24 hrs by Annexin V-FITC/PI staining based flow cytometry analysis ( Rvb = 2.36%); type: functional
[37] = system: HCT-116; test: Induction of cell cycle arrest in human HCT-116 cells assessed as accumulation of cells at G1 phase at 0.2 uM after 24 hrs by PI staining based flow cytometry analysis (reference value: 37.9%); type: functional
[38] = system: HCT-116; test: Induction of apoptosis in human HCT-116 cells assessed as necrotic cells at 0.2 uM incubated for 24 hrs by Annexin V-FITC/PI staining based flow cytometry analysis ( Rvb = 0.24%); type: functional
[39] = system: HCT-116; test: Induction of apoptosis in human HCT-116 cells assessed as viable cells at 0.2 uM incubated for 24 hrs by Annexin V-FITC/PI staining based flow cytometry analysis ( Rvb = 92.2%); type: functional; details: read-out: Activity
[40] = system: HCT-116; test: Induction of apoptosis in human HCT-116 cells assessed as early apoptotic cells at 0.4 uM incubated for 24 hrs by Annexin V-FITC/PI staining based flow cytometry analysis ( Rvb = 2.36%); type: functional

T1 sequence (O15379 whole entry, looked up): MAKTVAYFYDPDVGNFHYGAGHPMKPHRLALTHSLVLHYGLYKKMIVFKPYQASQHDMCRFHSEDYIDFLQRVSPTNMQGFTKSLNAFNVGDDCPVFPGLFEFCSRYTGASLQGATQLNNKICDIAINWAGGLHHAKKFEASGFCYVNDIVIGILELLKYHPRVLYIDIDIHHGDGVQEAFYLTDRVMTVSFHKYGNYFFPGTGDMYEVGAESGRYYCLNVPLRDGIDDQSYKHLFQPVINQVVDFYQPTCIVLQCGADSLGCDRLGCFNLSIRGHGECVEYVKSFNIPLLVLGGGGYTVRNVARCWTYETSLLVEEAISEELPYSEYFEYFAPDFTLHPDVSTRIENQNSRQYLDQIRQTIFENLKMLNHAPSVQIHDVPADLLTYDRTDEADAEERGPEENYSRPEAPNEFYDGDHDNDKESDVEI
T1 sequence (Q13547 whole entry, looked up): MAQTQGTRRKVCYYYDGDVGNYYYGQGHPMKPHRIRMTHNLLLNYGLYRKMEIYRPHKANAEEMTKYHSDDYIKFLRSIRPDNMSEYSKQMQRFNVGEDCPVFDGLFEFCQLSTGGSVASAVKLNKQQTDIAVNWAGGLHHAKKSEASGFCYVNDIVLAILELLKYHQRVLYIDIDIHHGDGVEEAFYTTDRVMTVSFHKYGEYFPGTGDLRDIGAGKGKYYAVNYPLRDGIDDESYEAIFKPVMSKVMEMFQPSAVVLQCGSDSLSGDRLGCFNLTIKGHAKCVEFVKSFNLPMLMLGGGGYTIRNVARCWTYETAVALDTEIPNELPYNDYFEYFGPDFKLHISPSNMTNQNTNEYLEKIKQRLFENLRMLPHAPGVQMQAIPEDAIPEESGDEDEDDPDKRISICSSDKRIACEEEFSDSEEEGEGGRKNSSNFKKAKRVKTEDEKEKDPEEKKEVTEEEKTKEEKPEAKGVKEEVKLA
T1 sequence (Q92769 whole entry, looked up): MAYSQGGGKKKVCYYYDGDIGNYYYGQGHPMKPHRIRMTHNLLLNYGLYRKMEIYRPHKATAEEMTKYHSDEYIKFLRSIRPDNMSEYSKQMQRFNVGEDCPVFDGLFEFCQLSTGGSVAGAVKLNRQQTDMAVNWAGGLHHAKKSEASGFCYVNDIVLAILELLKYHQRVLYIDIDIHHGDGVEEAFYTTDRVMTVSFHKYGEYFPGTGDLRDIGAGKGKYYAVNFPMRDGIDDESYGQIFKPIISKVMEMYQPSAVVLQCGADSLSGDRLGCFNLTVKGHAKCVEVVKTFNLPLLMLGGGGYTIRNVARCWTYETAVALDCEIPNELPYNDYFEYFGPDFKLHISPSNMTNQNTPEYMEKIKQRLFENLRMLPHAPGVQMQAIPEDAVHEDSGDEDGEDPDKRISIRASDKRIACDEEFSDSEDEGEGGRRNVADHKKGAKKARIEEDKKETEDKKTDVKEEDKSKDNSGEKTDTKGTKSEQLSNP
T1 sequence (Q9BY41 whole entry, looked up): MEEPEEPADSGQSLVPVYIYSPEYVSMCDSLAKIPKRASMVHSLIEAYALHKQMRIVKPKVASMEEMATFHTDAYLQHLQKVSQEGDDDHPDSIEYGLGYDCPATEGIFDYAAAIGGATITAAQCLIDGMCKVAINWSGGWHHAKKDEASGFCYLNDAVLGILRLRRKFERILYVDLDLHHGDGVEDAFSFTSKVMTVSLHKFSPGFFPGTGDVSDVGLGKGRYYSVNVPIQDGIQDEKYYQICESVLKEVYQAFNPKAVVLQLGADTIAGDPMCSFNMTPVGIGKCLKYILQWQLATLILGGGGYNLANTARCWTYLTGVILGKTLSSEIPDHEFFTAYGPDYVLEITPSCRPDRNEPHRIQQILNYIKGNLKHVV
Sequence of Histone deacetylase 1 (Q13547 whole entry): as the sequence (Q13547 whole entry, looked up) above

SMILES: O=C(NCCSSCCNC(=O)/C(Cc1ccc(O)c(Br)c1)=N/O)/C(Cc1ccc(O)c(Br)c1)=N/O [PSAMMAPLIN A]
- Activity [1]: 55.34%
- inhibition [2]: Active
- Activity [3]: 16.09%
- IC50 [4]: 26 nM
- Activity [5]: 16.2%
- viability at 2 µM [6]: 74.8%
- IC50 [7]: 3050 nM
- Activity [8]: 45.72%
- Activity [9]: 28.56%
- Activity [10]: 0.67%
- Activity [11]: 1.06%
- Activity [12]: 13.05%
- viability at 4 µM [13]: 42.5%
- Activity [14]: 14.8%
- Activity [15]: 41.24%
- inhibition in vivo at 10 mg/kg [16]: 36.1%
- Activity [17]: 40.3%
- Activity [18]: 9.74%
- inhibition [19]: inactive

SMILES: O=C(NCC[Se][Se]CCNC(=O)/C(Cc1ccc(Br)o1)=N/O)/C(Cc1ccc(Br)o1)=N/O
- IC50 [20]: 480 nM
- Activity [21]: 35.83%
- inhibition [2]: Active
- Activity [22]: 45.66%
- Activity [23]: 18.51%
- Activity [24]: 31.39%
- inhibition [25]: Dose-Dependent Effect
- Activity [26]: 18.2%
- Activity [27]: 56.35%
- Activity [28]: 24.54%
- Activity [29]: 0%
- viability at 0.4 µM [30]: 70.3%
- IC50 [7]: 290 nM
- IC50 [31]: 620 nM
- Activity [32]: 11.9%
- inhibition [33]: Dose-Dependent Effect
- Activity [34]: 19.11%
- Activity [35]: 17.28%
- Activity [36]: 11.4%
- Activity [37]: 51.33%
- Activity [38]: 0.001%
- viability at 0.2 µM [39]: 80.6%
- inhibition [19]: Active
- Activity [40]: 17.8%
